# Reference: PMC5218480 (PLoS ONE, 2017)
# System: MV-4-11 cells
# Test: Gene expression microarray analysis (Affymetrix PrimeView) and GSEA
# Assay type: cell-based, human
# Parameters: RFU PODN (11730768_x_at) / Fold change /veh PODN (11730768_x_at) / RFU LINC00158 (11744669_a_at) / Fold change /veh LINC00158 (11744669_a_at) / RFU DUSP10 (11751237_a_at) / Fold change /veh DUSP10 (11751237_a_at) / RFU ID3 (11757404_x_at) / Fold change /veh ID3 (11757404_x_at) / RFU PLEKHG5 (11737974_s_at) / Fold change /veh PLEKHG5 (11737974_s_at) / RFU LRRC4B (11730491_at) / Fold change /veh LRRC4B (11730491_at) / RFU GIMAP4 (11747438_a_at) / Fold change /veh GIMAP4 (11747438_a_at) / RFU KRT8 (11758183_x_at) / Fold change /veh KRT8 (11758183_x_at) / RFU CNN1 (11734310_a_at) / Fold change /veh CNN1 (11734310_a_at) / RFU VPS37D (11726825_at) / Fold change /veh VPS37D (11726825_at) / RFU C10orf10 (11716522_x_at) / Fold change /veh C10orf10 (11716522_x_at) / RFU KIR2DL2 /// KIR2DL4 /// KIR2DL5A /// KIR2DL5B /// KIR2DS1 /// KIR2DS2 /// KIR2DS3 /// KIR2DS4 /// KIR3DL3 /// KIR3DL3 /// KIR3DS1 (11738374_at) / Fold change /veh KIR2DL2 /// KIR2DL4 /// KIR2DL5A /// KIR2DL5B /// KIR2DS1 /// KIR2DS2 /// KIR2DS3 /// KIR2DS4 /// KIR3DL3 /// KIR3DL3 /// KIR3DS1 (11738374_at) / RFU C1QL1 (11718748_at) / Fold change /veh C1QL1 (11718748_at) / RFU TMPRSS4 (11747572_a_at) / Fold change /veh TMPRSS4 (11747572_a_at) / RFU HAMP (11756126_x_at) / Fold change /veh HAMP (11756126_x_at) / RFU RNFT2 (11725882_a_at) / Fold change /veh RNFT2 (11725882_a_at) / RFU NR4A2 (11747474_a_at) / Fold change /veh NR4A2 (11747474_a_at) / RFU ABCC12 (11746883_a_at) / Fold change /veh ABCC12 (11746883_a_at) / RFU TMEM136 (11760407_x_at) / Fold change /veh TMEM136 (11760407_x_at) / RFU CLDN22 /// WWC2 (11732394_at) / Fold change /veh CLDN22 /// WWC2 (11732394_at) / RFU HLA-DPB1 (11760878_x_at) / Fold change /veh HLA-DPB1 (11760878_x_at) / RFU SPINT1 (11716480_a_at) / Fold change /veh SPINT1 (11716480_a_at) / RFU GAP43 (11754022_s_at) / Fold change /veh GAP43 (11754022_s_at) / RFU A4GNT (11735810_at) / Fold change /veh A4GNT (11735810_at) / RFU PRB3 (11715151_x_at) / Fold change /veh PRB3 (11715151_x_at) / RFU TUBB4B (11761932_at) / Fold change /veh TUBB4B (11761932_at) / RFU CAPN14 (11732068_a_at) / Fold change /veh CAPN14 (11732068_a_at) / RFU TMCC2 (11721928_a_at) / Fold change /veh TMCC2 (11721928_a_at) / RFU IRGQ (11745062_a_at) / Fold change /veh IRGQ (11745062_a_at) / RFU FAM174B (11720279_a_at) / Fold change /veh FAM174B (11720279_a_at) / RFU TMPRSS4 (11748680_a_at) / Fold change /veh TMPRSS4 (11748680_a_at) / RFU FAM212B (11763350_a_at) / Fold change /veh FAM212B (11763350_a_at) / RFU PLEKHG5 (11743358_a_at) / Fold change /veh PLEKHG5 (11743358_a_at) / RFU ZSCAN30 (11745921_a_at) / Fold change /veh ZSCAN30 (11745921_a_at) / RFU CMKLR1 (11741424_a_at) / Fold change /veh CMKLR1 (11741424_a_at) / RFU LOC101060620 /// MAPK8IP1 (11723275_at) / Fold change /veh LOC101060620 /// MAPK8IP1 (11723275_at) / RFU SPTSSB (11747773_x_at) / Fold change /veh SPTSSB (11747773_x_at) / RFU PRSS12 (11739890_at) / Fold change /veh PRSS12 (11739890_at) / RFU BIN1 (11741810_x_at) / Fold change /veh BIN1 (11741810_x_at) / RFU WNT11 (11732464_a_at) / Fold change /veh WNT11 (11732464_a_at) / RFU C10orf10 (11716521_a_at) / Fold change /veh C10orf10 (11716521_a_at) / RFU C5orf56 (11738089_at) / Fold change /veh C5orf56 (11738089_at) / RFU CYB561 (11721691_x_at) / Fold change /veh CYB561 (11721691_x_at) / RFU ANKRD19P (11752326_a_at) / Fold change /veh ANKRD19P (11752326_a_at) / RFU OR2T12 /// OR2T33 /// OR2T8 (11738714_s_at) / Fold change /veh OR2T12 /// OR2T33 /// OR2T8 (11738714_s_at) / RFU VCAN (11748164_a_at) / Fold change /veh VCAN (11748164_a_at) / RFU JSRP1 (11732532_at) / Fold change /veh JSRP1 (11732532_at) / RFU KRTAP10-11 (11738290_x_at) / Fold change /veh KRTAP10-11 (11738290_x_at) / RFU MYO3A (11730013_a_at) / Fold change /veh MYO3A (11730013_a_at) / RFU EBF3 (11725865_a_at) / Fold change /veh EBF3 (11725865_a_at) / RFU CAMK2N1 (11719241_x_at) / Fold change /veh CAMK2N1 (11719241_x_at) / RFU C5orf56 (11738088_a_at) / Fold change /veh C5orf56 (11738088_a_at) / RFU OLFML3 (11715873_a_at) / Fold change /veh OLFML3 (11715873_a_at) / RFU LOC100653217 /// NTM (11731650_a_at) / Fold change /veh LOC100653217 /// NTM (11731650_a_at) / RFU MAPK11 (11762145_a_at) / Fold change /veh MAPK11 (11762145_a_at) / RFU FIZ1 (11724087_x_at) / Fold change /veh FIZ1 (11724087_x_at) / RFU OASL (11726364_x_at) / Fold change /veh OASL (11726364_x_at) / RFU SOX15 (11748057_x_at) / Fold change /veh SOX15 (11748057_x_at) / RFU CD79A (11719716_a_at) / Fold change /veh CD79A (11719716_a_at) / RFU HIST1H1D (11736915_at) / Fold change /veh HIST1H1D (11736915_at) / RFU CASKIN2 (11723855_a_at) / Fold change /veh CASKIN2 (11723855_a_at) / RFU LOC730098 (11760151_x_at) / Fold change /veh LOC730098 (11760151_x_at) / RFU OR4N2 (11742367_at) / Fold change /veh OR4N2 (11742367_at) / RFU PRRT2 (11749266_a_at) / Fold change /veh PRRT2 (11749266_a_at) / RFU SNX32 (11753110_a_at) / Fold change /veh SNX32 (11753110_a_at) / RFU CDHR5 (11726645_a_at) / Fold change /veh CDHR5 (11726645_a_at) / RFU RCAN1 (11760418_a_at) / Fold change /veh RCAN1 (11760418_a_at) / RFU FAM167A (11723789_a_at) / Fold change /veh FAM167A (11723789_a_at) / RFU FAM26E (11764081_at) / Fold change /veh FAM26E (11764081_at) / RFU ISYNA1 (11749810_s_at) / Fold change /veh ISYNA1 (11749810_s_at) / RFU ACY1 (11761880_at) / Fold change /veh ACY1 (11761880_at) / RFU 11764098_at / Fold change /veh 11764098_at / RFU SAMD14 (11745864_x_at) / Fold change /veh SAMD14 (11745864_x_at) / RFU NPB (11741838_a_at) / Fold change /veh NPB (11741838_a_at) / RFU TMPRSS6 (11731388_a_at) / Fold change /veh TMPRSS6 (11731388_a_at) / RFU KRTAP10-2 (11738614_at) / Fold change /veh KRTAP10-2 (11738614_at) / RFU ARHGAP8 /// PRR5-ARHGAP8 (11727945_x_at) / Fold change /veh ARHGAP8 /// PRR5-ARHGAP8 (11727945_x_at) / RFU KRTAP5-7 /// NADSYN1 (11734609_at) / Fold change /veh KRTAP5-7 /// NADSYN1 (11734609_at) / RFU RASL12 (11751679_a_at) / Fold change /veh RASL12 (11751679_a_at) / RFU CDKN2B (11736163_a_at) / Fold change /veh CDKN2B (11736163_a_at) / RFU PRF1 (11729649_at) / Fold change /veh PRF1 (11729649_at) / RFU, ZNF638 /// ZNF638-IT1 / Fold change vs veh, ZNF638 /// ZNF638-IT1 / RFU, PANK3 / Fold change vs veh, PANK3 / RFU, SH3YL1 / Fold change vs veh, SH3YL1 / RFU, ZEB2 / Fold change vs veh, ZEB2 / RFU, NRIP1 / Fold change vs veh, NRIP1 / RFU, PTTG1IP / Fold change vs veh, PTTG1IP / RFU, CAPN2 / Fold change vs veh, CAPN2 / RFU, MED14 / Fold change vs veh, MED14 / RFU, SNORA58 / Fold change vs veh, SNORA58 / RFU, C1orf63 / Fold change vs veh, C1orf63 / RFU, LRRFIP1 / Fold change vs veh, LRRFIP1 / RFU, NDUFAF7 / Fold change vs veh, NDUFAF7 / RFU, SLC12A2 / Fold change vs veh, SLC12A2 / RFU, IBTK / Fold change vs veh, IBTK / RFU, ESF1 / Fold change vs veh, ESF1 / Fold change vs veh, TMEM50B / RFU, TAOK1 / Fold change vs veh, TAOK1 / RFU, ACBD3 / Fold change vs veh, ACBD3 / RFU, TMA16 / Fold change vs veh, TMA16 / RFU, RWDD3 / Fold change vs veh, RWDD3 / RFU, BCAT1 / Fold change vs veh, BCAT1 / RFU, EDEM3 / Fold change vs veh, EDEM3 / RFU, TMEM33 / Fold change vs veh, TMEM33 / RFU, WDR75 / Fold change vs veh, WDR75 / RFU, AHCTF1 / Fold change vs veh, AHCTF1 / RFU, TFRC / Fold change vs veh, TFRC / RFU, ZDHHC17 / Fold change vs veh, ZDHHC17 / RFU, NOM1 / Fold change vs veh, NOM1 / RFU, ARL8B / Fold change vs veh, ARL8B / RFU, ZBTB11 / Fold change vs veh, ZBTB11 / RFU, TAMM41 / Fold change vs veh, TAMM41 / RFU, KIAA1704 /// LOC100996395 / Fold change vs veh, KIAA1704 /// LOC100996395 / RFU, ING1 / Fold change vs veh, ING1 / RFU, TRMT61B / Fold change vs veh, TRMT61B / RFU, FUBP3 / Fold change vs veh, FUBP3 / RFU, TP53 / Fold change vs veh, TP53 / RFU, TNKS2 / Fold change vs veh, TNKS2 / RFU, ZFP14 / Fold change vs veh, ZFP14 / RFU, ACTR2 / Fold change vs veh, ACTR2 / RFU, PPP3R1 / Fold change vs veh, PPP3R1 / RFU, PIK3R1 / Fold change vs veh, PIK3R1 / RFU, HNRNPA1 / Fold change vs veh, HNRNPA1 / RFU, RNF170 / Fold change vs veh, RNF170 / RFU, ZNF28 / Fold change vs veh, ZNF28 / RFU, RNGTT / Fold change vs veh, RNGTT / RFU, OGT / Fold change vs veh, OGT / RFU, BRD1 / Fold change vs veh, BRD1 / RFU, MARS / Fold change vs veh, MARS / RFU, ZNF655 / Fold change vs veh, ZNF655 / RFU, FAHD1 / Fold change vs veh, FAHD1 / RFU, BDP1 / Fold change vs veh, BDP1 / RFU, LRRCC1 / Fold change vs veh, LRRCC1 / RFU, ARID1A / Fold change vs veh, ARID1A / RFU, ZNF146 / Fold change vs veh, ZNF146 / RFU, ZNF330 / Fold change vs veh, ZNF330 / RFU, GPN3 / Fold change vs veh, GPN3 / RFU, C9orf123 / Fold change vs veh, C9orf123 / RFU, N4BP2L2 / Fold change vs veh, N4BP2L2 / RFU, ARFIP1 / Fold change vs veh, ARFIP1 / RFU, FAM179B / Fold change vs veh, FAM179B / RFU, BCL10 / Fold change vs veh, BCL10 / RFU, UHRF1BP1L / Fold change vs veh, UHRF1BP1L / RFU, BET1 / Fold change vs veh, BET1 / RFU, CNOT2 / Fold change vs veh, CNOT2 / RFU, ZNF268 / Fold change vs veh, ZNF268 / Fold change vs veh, ZNF507 / RFU, DGCR2 / Fold change vs veh, DGCR2 / RFU, WDSUB1 / Fold change vs veh, WDSUB1 / Fold change vs veh, HSP90B1 /// MIR3652 / RFU, ADSS / Fold change vs veh, ADSS / RFU, GK / Fold change vs veh, GK / RFU, ZNF148 / Fold change vs veh, ZNF148 / RFU, TAF9 / Fold change vs veh, TAF9 / RFU, SLC1A5 / Fold change vs veh, SLC1A5 / RFU, SLMO2 / Fold change vs veh, SLMO2 / RFU, ABCC4 / Fold change vs veh, ABCC4 / RFU, LOC101060439 /// RAP1B / Fold change vs veh, LOC101060439 /// RAP1B / RFU, RFX7 / Fold change vs veh, RFX7 / RFU, GTPBP10 / Fold change vs veh, GTPBP10 / RFU, CNEP1R1 / Fold change vs veh, CNEP1R1 / RFU, BIVM-ERCC5 /// ERCC5 / Fold change vs veh, BIVM-ERCC5 /// ERCC5 / RFU, ILF3 / Fold change vs veh, ILF3 / RFU 11762660_at / Fold change /veh 11762660_at / RFU VCAN (11757783_s_at) / Fold change /veh VCAN (11757783_s_at) / RFU DDX43 (11728927_at) / Fold change /veh DDX43 (11728927_at) / RFU KRT8 (11758188_x_at) / Fold change /veh KRT8 (11758188_x_at) / RFU NKD1 (11759106_at) / Fold change /veh NKD1 (11759106_at) / RFU SRD5A1 (11742802_a_at) / Fold change /veh SRD5A1 (11742802_a_at) / RFU TPSAB1 /// TPSB2 (11721975_s_at) / Fold change /veh TPSAB1 /// TPSB2 (11721975_s_at) / RFU GSTM3 (11746129_a_at) / Fold change /veh GSTM3 (11746129_a_at) / RFU IL23R (11737362_x_at) / Fold change /veh IL23R (11737362_x_at) / RFU TMEM51 (11727254_a_at) / Fold change /veh TMEM51 (11727254_a_at) / RFU PIWIL2 (11732686_x_at) / Fold change /veh PIWIL2 (11732686_x_at) / RFU ORM1 (11744905_x_at) / Fold change /veh ORM1 (11744905_x_at) / RFU CCDC152 (11743942_at) / Fold change /veh CCDC152 (11743942_at) / RFU ECM1 (11717891_a_at) / Fold change /veh ECM1 (11717891_a_at) / RFU IL23R (11748794_a_at) / Fold change /veh IL23R (11748794_a_at) / RFU TNFAIP8L3 (11732012_x_at) / Fold change /veh TNFAIP8L3 (11732012_x_at) / RFU MBOAT4 (11741988_at) / Fold change /veh MBOAT4 (11741988_at) / RFU 11764193_at / Fold change /veh 11764193_at / RFU TMEM53 (11763286_at) / Fold change /veh TMEM53 (11763286_at) / RFU MAGEB2 (11727129_at) / Fold change /veh MAGEB2 (11727129_at) / RFU TMEM200A (11744735_a_at) / Fold change /veh TMEM200A (11744735_a_at) / RFU CCDC152 (11751479_a_at) / Fold change /veh CCDC152 (11751479_a_at) / RFU FAM211A (11726209_a_at) / Fold change /veh FAM211A (11726209_a_at) / RFU RGS16 (11746705_a_at) / Fold change /veh RGS16 (11746705_a_at) / RFU VCAN (11755009_s_at) / Fold change /veh VCAN (11755009_s_at) / RFU RHOB (11743442_s_at) / Fold change /veh RHOB (11743442_s_at) / RFU RGS16 (11720943_a_at) / Fold change /veh RGS16 (11720943_a_at) / RFU RGS16 (11720944_at) / Fold change /veh RGS16 (11720944_at) / RFU, VPS4B / Fold change vs veh, VPS4B / RFU, CREB1 / Fold change vs veh, CREB1 / RFU, DNAJC13 / Fold change vs veh, DNAJC13 / RFU, GNAQ / Fold change vs veh, GNAQ / RFU, CDK5R1 / Fold change vs veh, CDK5R1 / RFU, ZRANB3 / Fold change vs veh, ZRANB3 / RFU, CUL4A / Fold change vs veh, CUL4A / RFU, CCNY / Fold change vs veh, CCNY / RFU, UFL1 / Fold change vs veh, UFL1 / RFU, COG3 / Fold change vs veh, COG3 / RFU, DIAPH2 / Fold change vs veh, DIAPH2 / RFU, SKA2 / Fold change vs veh, SKA2 / RFU, AFF3 / Fold change vs veh, AFF3 / RFU, LMF1 / Fold change vs veh, LMF1 / RFU, IPO11 / Fold change vs veh, IPO11 / RFU, DFFB / Fold change vs veh, DFFB / RFU, FOXP1 / Fold change vs veh, FOXP1 / RFU, CARD8 / Fold change vs veh, CARD8 / RFU, STRN3 / Fold change vs veh, STRN3 / RFU, ADK / Fold change vs veh, ADK / RFU, RASSF2 / Fold change vs veh, RASSF2 / RFU, WIPF1 / Fold change vs veh, WIPF1 / RFU, LARP1B / Fold change vs veh, LARP1B / RFU, RASA1 / Fold change vs veh, RASA1 / RFU, RB1 / Fold change vs veh, RB1 / RFU, PPFIA1 / Fold change vs veh, PPFIA1 / RFU, MAT2A / Fold change vs veh, MAT2A / RFU, CCT5 / Fold change vs veh, CCT5 / RFU, WDR92 / Fold change vs veh, WDR92 / RFU, CUX1 / Fold change vs veh, CUX1 / RFU, TTC7A / Fold change vs veh, TTC7A / RFU, TMEM135 / Fold change vs veh, TMEM135 / RFU, DEPTOR / Fold change vs veh, DEPTOR / RFU, CPM / Fold change vs veh, CPM / RFU, DNAJB6 / Fold change vs veh, DNAJB6 / RFU, CACNA2D3 / Fold change vs veh, CACNA2D3 / RFU, DTX4 / Fold change vs veh, DTX4 / RFU, TFCP2 / Fold change vs veh, TFCP2 / RFU, GMCL1 /// GMCL1P1 / Fold change vs veh, GMCL1 /// GMCL1P1 / RFU, AEBP2 / Fold change vs veh, AEBP2 / RFU, SNHG1 /// SNORD22 /// SNORD25 /// SNORD26 /// SNORD27 /// SNORD28 /// SNORD29 /// SNORD31 / Fold change vs veh, SNHG1 /// SNORD22 /// SNORD25 /// SNORD26 /// SNORD27 /// SNORD28 /// SNORD29 /// SNORD31 / Fold change (Aza/veh), C12orf56 (ProbeSet 11735607_a_at) / Fold change (ACY-1035/veh), C12orf56 (ProbeSet 11735607_a_at) / Fold change (Aza/veh), FGFR1OP (ProbeSet 11751329_s_at) / Fold change (ACY-1035/veh), FGFR1OP (ProbeSet 11751329_s_at) / Fold change (Aza/veh), VPS36 (ProbeSet 11739960_a_at) / Fold change (ACY-1035/veh), VPS36 (ProbeSet 11739960_a_at) / RFU SYPL1 (11715823_x_at) / Fold change /veh SYPL1 (11715823_x_at) / RFU IGFBP7 (11715501_s_at) / Fold change /veh IGFBP7 (11715501_s_at) / RFU REEP3 (11722064_at) / Fold change /veh REEP3 (11722064_at) / RFU IGLL1 (11728026_x_at) / Fold change /veh IGLL1 (11728026_x_at): dose or concentration left out as unconfirmed
# Conditions: MV-4-11 cells, 48 hours
smiles,measurement,value
Nc1ncn([C@@H]2O[C@H](CO)[C@@H](O)[C@H]2O)c(=O)n1 [azacitidine],Fold change /veh ABCC12 (11746883_a_at),0.93
